Laboratory results taken from patent publication US20080261913A1, “Compounds and pharmaceutical compositions for the treatment of liver disorders” (Idenix Pharmaceuticals, Inc., priority 2006, published 2008).
“And” between values parts separate entries of the source, which are not always exact repeats. Identical values can stand only once.

Experiments:
[1] = system: Primary hepatocytes (Cynomolgus Monkey); assay: In vitro phosphorylation in hepatocytes (LddA-TP formation), monkey; assay type: in vitro ADME
Protocol: (§1) Measurements of the concentration of 2′-3′-dideoxyadenosine-5′-triphosphate (ddATP) (the triphosphate nucleotide of 2′-3′-dideoxyadenosine (ddA) are performed by liquid chromatography tandem mass spectrometry (LC/MS/MS), e.g., of methanolic extracts of hepatocytes.
(§2) The concentration of ddATP is measured by comparison to a standard curve. Working stock solutions of TP-ddA are prepared from a […] stock solution in de-ionized water of ddATP (tetrasodium salt of >91% purity) purchased from Sigma Chemical Co as follows:
(§3) HPLC is conducted on Phenomenex Luna Amino 3 μm 100 A, 30×2 mm column, with a mobile phase: A: 70% 10 mM NH4OAc 30% ACN pH 6.0; and B: 70% 1 mM NH4OAc 30% ACN pH 10.5 as follows:
(§4) Primary hepatocytes (Rat, Cynomolgus Monkey or human) were seeded at 0.8×10^6 in a collagen-coated 12-well plate and allowed to attach 4-6 hours after which time the seeding medium was replaced with serum-free culture medium and cells allowed to acclimatize to the new medium overnight. On the next day, cells were exposed for 1, 4, 8 and 24 hours to test article A550 (NM204) at 10 and 50 μM prepared in fresh culture medium from stock solution in DMSO (final DMSO concentration was 0.1%). At each time point, an aliquot (500 μl) was collected and immediately added to 500 μl of acetonitrile and stored at −20° C. until analysis. The remaining exposure medium was removed and the cell monolayer (stuck to dish) washed 2 times with ice-cold PBS. Any remaining PBS was carefully removed by aspiration and cells were harvested by scraping in 1 mL 70% ice-cold methanol. Cell samples were placed overnight at −20° C. and cellular debris removed by centrifugation on the next day. The supernatants were removed and filtered prior to analysis by LC/MS. A standard curve was prepared by using untreated cells processed similarly except that prior to harvesting in 70% methanol, 10 μl of LddATP standard solutions prepared in methanol were added to the washed monolayers. These control samples were then processed and analyzed as described for test samples.

[2] = In vivo studies in rat: A550 and LddATP measured in livers after IV or oral dose; conditions: male rat liver
Protocol: Distribution of A550 (NM-204) (the compound of Example 1 (Hydroxy-tBuSATE N-benzylphosphoroamidate derivative of L-ddA) in the rat liver was evaluated following a single intravenous (I.V.) or oral administration of A550 (NM-204) at a dose of 20 (oral) or 10 (I.V.) mg/Kg body weight. The dose solutions were prepared on the same day prior to dose administration.
At the specified time point (1 and 3 hours for IV animals or 1, 3 and 8 hours for oral animals), each animal was euthanized by CO2 gas followed by exsanguination via the abdominal vein. Livers were collected immediately after sacrifice, flash frozen in liquid nitrogen, placed on dry ice, and later stored at −70° C., before being analyzed.
Control rat liver samples were taken from whole frozen livers (Bioreclamation, Inc. Hicksville, N.Y.) with the aid of a tissue coring utensil (Harris Unicore, 8.0 mm, VWR). Each ˜0.1 g sample was placed in individual 2 mL poly vials with 0.940 mL of 80% MeOH/20% DIH2O and homogenates were prepared using a mechanical tissue disruptor (Tissue Master, Omni-International, Inc, Marietta Ga.). The vials received a 10 μl aliquot of a working stock solution and a 50 μl aliquot of the ISTD before vortexing for ˜30 sec. The mixtures were stored overnight at −20° C. and the next day were removed for 10 min of centrifugation in a benchtop centrifuge. Each supernatant was transferred to individual centrifugation filtration units (0.45 μm) and the resulting filtrates were transferred to HPLC vials for the LC/MS/MS analysis. The final concentrations of ddATP in the calibration standards was 1000, 500, 250, 125, 50, and 0 pmol/ml. Each calibration standard was directly injected in a 50 μL volume onto the ion-exchange column for analysis. Standard curve analysis of calibration standards from control liver extracts was conducted.
Analysis of ddATP was done by an ion-exchange chromatography method with on-line positive ionization ESI-MS/MS detection in multiple reaction monitoring (MRM) detection mode. […] This is equivalent to a range of […] per gram liver by the sample preparation employed. The HPLC MS MS conditions described in Example 5 were utilized.

[3] = system: Primary hepatocytes (Rat); assay: In vitro phosphorylation in hepatocytes (LddA-TP formation), rat; assay type: in vitro ADME
Protocol: as §1, §2, §3, §4

[4] = system: Primary hepatocytes (human); assay: In vitro phosphorylation in hepatocytes (LddA-TP formation), human; assay type: in vitro ADME
Protocol: as §1, §2, §3, §4

[5] = system: Primary hepatocyte cultures (human); assay: Determination of triphosphate levels in cells, human primary hepatocytes; assay type: in vitro ADME; conditions: general statement on the table of b531, 10 μM drug
Protocol: Freshly isolated cells from animal and human liver were obtained in suspension on ice. Following receipt, cells were pelleted by centrifugation at 500 rpm (rat) or 700 rpm (monkey and human) and resuspended at 0.8 million cells per mL of platting medium (HPM). Multi-well collagen-coated plates (12-well) were then seeded by addition of 1 mL of cell suspention (0.8 million cells/mL). The plates were gently shaken to evenly distribute the cells and placed in an incubator at 37° C. for approximately 4 to 6 hours to allow cells to attach. Once cells have attached, the platting medium was removed and replaced with hepatocyte culture medium (HCM). Cells were left overnight in an incubator at 37° C. to acclimatize to culture and the medium.
Hepatocyte incubations were conducted in a final volume of 1.0 mL HCM/well (0.8 million cells/mL). HCM from overnight incubation of cells was removed and replaced with fresh HCM, pre-warmed to 37° C., containing 10 μM test article from a stock solution in DMSO (final DMSO concentration was 0.1%). […]
Cellular extracts were prepared by transferring 0.9 mL of extract into 2 mL microfuge tubes followed by centrifugation for 5 min at 14,000 rpm. Approximately 100 μL of the supernatant was transferred to HPLC vials and triphosphate levels determined by LCMS/MS as described below. […]

[6] = IV dose 10 mg/kg, 1 hr, individual animals, 10 mg/kg
[7] = IV dose 10 mg/kg, 3 hrs, individual animals, 10 mg/kg
[8] = Oral dose 20 mg/kg, 1 hr, individual animals, 20 mg/kg
[9] = Oral dose 20 mg/kg, 3 hrs, Mean
[10] = Oral dose 20 mg/kg, 3 hrs, individual animals, 20 mg/kg
[11] = Oral dose 20 mg/kg, 8 hrs, Mean
[12] = Oral dose 20 mg/kg, 8 hrs, individual animals, 20 mg/kg

Hydroxy-tBuSATE N-benzylphosphoroamidate derivative of L-ddA [Example A550]
LddA TP Levels ([1]; 10 μM, 1 hour): 287.5 pmol/million cells | LddA TP Levels ([1]; 10 μM, 4 hours): 978.0 pmol/million cells | LddA TP Levels ([1]; 10 μM, 8 hours): 1230.0 pmol/million cells | LddA TP Levels ([1]; 10 μM, 24 hours): 344.0 pmol/million cells | LddA TP Levels ([1]; 50 μM, 1 hour): 2085.0 pmol/million cells | LddA TP Levels ([1]; 50 μM, 4 hours): 5690.0 pmol/million cells | LddA TP Levels ([1]; 50 μM, 8 hours): 6030.0 pmol/million cells | LddA TP Levels ([1]; 50 μM, 24 hours): 3030.0 pmol/million cells | Concentration Compound (Ex 1) ([2]; IV dose 10 mg/kg, 1 hr, Mean): 80.0 pmol/g liver | Concentration. ddA-TP ([2]; IV dose 10 mg/kg, 1 hr, Mean): 1770 pmol/g liver | Concentration. ddA-TP ([2]; IV dose 10 mg/kg, 1 hr, Mean, via hepatocellularity number): 15.5 pmol/10^6 cells | Concentration Compound (Ex 1) [2, 6]: 85.1 pmol/g liver and 65.8 pmol/g liver and 89.1 pmol/g liver | Concentration. ddA-TP [2, 6]: 1355 pmol/g liver and 2025 pmol/g liver and 1930 pmol/g liver | Concentration. ddA-TP ([2]; IV dose 10 mg/kg, 1 hr, individual animals, via hepatocellularity number, 10 mg/kg): 11.9 pmol/10^6 cells and 17.8 pmol/10^6 cells and 16.9 pmol/10^6 cells | Concentration Compound (Ex 1) ([2]; IV dose 10 mg/kg, 3 hrs, Mean): 27.9 pmol/g liver | Concentration. ddA-TP ([2]; IV dose 10 mg/kg, 3 hrs, Mean): 2092 pmol/g liver | Concentration. ddA-TP ([2]; IV dose 10 mg/kg, 3 hrs, Mean, via hepatocellularity number): 18.3 pmol/10^6 cells | Concentration Compound (Ex 1) [2, 7]: 28.3 pmol/g liver and 26.0 pmol/g liver and 29.3 pmol/g liver | Concentration. ddA-TP [2, 7]: 1345 pmol/g liver and 1940 pmol/g liver and 2990 pmol/g liver | Concentration. ddA-TP ([2]; IV dose 10 mg/kg, 3 hrs, individual animals, via hepatocellularity number, 10 mg/kg): 11.8 pmol/10^6 cells and 17.0 pmol/10^6 cells and 26.2 pmol/10^6 cells | Concentration Compound (Ex 1) ([2]; Oral dose 20 mg/kg, 1 hr, Mean): 251 pmol/g liver | Concentration. ddA-TP ([2]; Oral dose 20 mg/kg, 1 hr, Mean): 395 pmol/g liver | Concentration. ddA-TP ([2]; Oral dose 20 mg/kg, 1 hr, Mean, via hepatocellularity number): 3.5 pmol/10^6 cells | Concentration Compound (Ex 1) [2, 8]: 411 pmol/g liver and 272 pmol/g liver and 70.2 pmol/g liver | Concentration. ddA-TP [2, 8]: 210 pmol/g liver and 575 pmol/g liver and 400 pmol/g liver | Concentration. ddA-TP ([2]; Oral dose 20 mg/kg, 1 hr, individual animals, via hepatocellularity number, 20 mg/kg): 1.8 pmol/10^6 cells and 5.0 pmol/10^6 cells and 3.5 pmol/10^6 cells | Concentration Compound (Ex 1) [2, 9]: 204 pmol/g liver | Concentration. ddA-TP [2, 9]: 312 pmol/g liver | Concentration. ddA-TP ([2]; Oral dose 20 mg/kg, 3 hrs, Mean, via hepatocellularity number): 2.7 pmol/10^6 cells | Concentration Compound (Ex 1) [2, 10]: 360 pmol/g liver and 92.1 pmol/g liver and 161 pmol/g liver | Concentration. ddA-TP [2, 10]: 200 pmol/g liver and 330 pmol/g liver and 405 pmol/g liver | Concentration. ddA-TP ([2]; Oral dose 20 mg/kg, 3 hrs, individual animals, via hepatocellularity number, 20 mg/kg): 1.8 pmol/10^6 cells and 2.9 pmol/10^6 cells and 3.6 pmol/10^6 cells | Concentration Compound (Ex 1) [2, 11]: 20.1 pmol/g liver | Concentration. ddA-TP [2, 11]: 382 pmol/g liver | Concentration. ddA-TP ([2]; Oral dose 20 mg/kg, 8 hrs, Mean, via hepatocellularity number): 3.3 pmol/10^6 cells | Concentration Compound (Ex 1) [2, 12]: 16.4 pmol/g liver and 28 pmol/g liver and 16.2 pmol/g liver | Concentration. ddA-TP [2, 12]: 280 pmol/g liver and 805 pmol/g liver and 275 pmol/g liver | Concentration. ddA-TP ([2]; Oral dose 20 mg/kg, 8 hrs, individual animals, via hepatocellularity number, 20 mg/kg): 2.5 pmol/10^6 cells and 5.2 pmol/10^6 cells and 2.4 pmol/10^6 cells | LddA TP Levels ([3]; 10 μM, 1 hour): 159.5 pmol/million cells | LddA TP Levels ([3]; 10 μM, 4 hours): 388.0 pmol/million cells | LddA TP Levels ([3]; 10 μM, 8 hours): 468.5 pmol/million cells | LddA TP Levels ([3]; 10 μM, 24 hours): 422.0 pmol/million cells | LddA TP Levels ([3]; 50 μM, 1 hour): 393.0 pmol/million cells | LddA TP Levels ([3]; 50 μM, 4 hours): 1212.0 pmol/million cells | LddA TP Levels ([3]; 50 μM, 8 hours): 1590.0 pmol/million cells | LddA TP Levels ([3]; 50 μM, 24 hours): 1505.0 pmol/million cells | LddA TP Levels ([4]; 10 μM, 1 hour): 161.5 pmol/million cells | LddA TP Levels ([4]; 10 μM, 4 hours): 312.5 pmol/million cells | LddA TP Levels ([4]; 10 μM, 8 hours): 352.5 pmol/million cells | LddA TP Levels ([4]; 10 μM, 24 hours): 366.0 pmol/million cells | LddA TP Levels ([4]; 50 μM, 1 hour): 682.5 pmol/million cells | LddA TP Levels ([4]; 50 μM, 4 hours): 1480.0 pmol/million cells | LddA TP Levels ([4]; 50 μM, 8 hours): 1930.0 pmol/million cells | LddA TP Levels ([4]; 50 μM, 24 hours): 2062.5 pmol/million cells

CC(C)(CO)C(=O)SCCOP(=O)(NCc1ccccc1)OC[C@H]1O[C@@H](n2ccc(N)nc2=O)[C@](C)(O)[C@@H]1O (mixture of isomers) [Example B102, Hydroxy-tBuSATE N-Benzylphosphoroamidate Derivative of 2′-C-methylcytidine]
levels of intracellular triphosphate as compared to those for NM107 [5]: much higher
